The target in one test is Human β2 adrenoceptor (Homo sapiens, UniProt P07550). The following applies: read-out: B2 binding affinity.
The target in a further test is Human M3 receptor (Homo sapiens, UniProt P20309). As to conditions: read-out: M3 binding affinity.
Chain of Human M3 receptor (P20309 whole entry): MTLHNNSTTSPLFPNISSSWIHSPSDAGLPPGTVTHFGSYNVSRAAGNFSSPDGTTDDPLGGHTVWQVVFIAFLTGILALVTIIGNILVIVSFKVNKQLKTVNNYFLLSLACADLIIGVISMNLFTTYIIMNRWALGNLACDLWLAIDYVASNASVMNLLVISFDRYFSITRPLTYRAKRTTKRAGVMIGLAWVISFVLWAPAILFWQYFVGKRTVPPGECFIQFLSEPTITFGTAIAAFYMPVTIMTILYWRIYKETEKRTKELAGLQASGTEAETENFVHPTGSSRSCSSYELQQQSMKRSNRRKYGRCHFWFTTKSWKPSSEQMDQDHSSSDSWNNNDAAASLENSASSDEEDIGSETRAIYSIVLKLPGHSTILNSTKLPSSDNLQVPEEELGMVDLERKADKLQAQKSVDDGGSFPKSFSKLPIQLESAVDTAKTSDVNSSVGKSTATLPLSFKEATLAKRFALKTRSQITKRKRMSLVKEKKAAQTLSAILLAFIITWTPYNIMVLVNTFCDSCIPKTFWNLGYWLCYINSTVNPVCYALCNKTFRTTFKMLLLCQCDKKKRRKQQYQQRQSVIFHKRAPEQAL

Chain of Human β2 adrenoceptor (P07550 whole entry): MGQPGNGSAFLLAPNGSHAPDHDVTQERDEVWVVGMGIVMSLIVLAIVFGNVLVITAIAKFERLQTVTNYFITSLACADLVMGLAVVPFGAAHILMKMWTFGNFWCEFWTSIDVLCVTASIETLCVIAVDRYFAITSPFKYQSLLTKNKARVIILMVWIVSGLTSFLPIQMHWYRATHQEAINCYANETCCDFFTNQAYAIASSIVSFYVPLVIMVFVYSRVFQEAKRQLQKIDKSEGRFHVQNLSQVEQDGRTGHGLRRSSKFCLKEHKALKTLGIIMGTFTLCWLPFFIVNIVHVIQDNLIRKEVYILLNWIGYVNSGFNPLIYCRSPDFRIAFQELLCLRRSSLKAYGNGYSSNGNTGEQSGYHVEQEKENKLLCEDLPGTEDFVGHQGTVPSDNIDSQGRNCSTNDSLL

For `O=C(NCCCOc1cccc([C@](O)(C(=O)OCC2CCN(Cc3ccccc3)CC2)c2ccccc2)c1)c1ccc(CNC[C@H](O)c2ccc(O)c3[nH]c(=O)ccc23)nc1` [Compound 32C, (S)-(1-benzylpiperidin-4-yl)methyl 2-hydroxy-2-(3-(3-(6-((((R)-2-hydroxy-2-(8-hydroxy-2-oxo-1,2-dihydroquinolin-5-yl)ethyl)amino)methyl)nicotinamido)propoxy)phenyl)-2-phenylacetate], the IC50 at Human β2 adrenoceptor is below 0.3 nM; on Human M3 receptor it was 0.3 to 3 nM.
Regarding `CCOc1cc(C(=O)NCCCOc2cccc([C@](O)(C(=O)OCC3CCN(Cc4ccccc4)CC3)c3ccccc3)c2)ccc1CNC[C@H](O)c1ccc(O)c2[nH]c(=O)ccc12` [Compound 32D, (S)-(1-benzylpiperidin-4-yl)methyl 2-(3-(3-(3-ethoxy-4-((((R)-2-hydroxy-2-(8-hydroxy-2-oxo-1,2-dihydroquinolin-5-yl)ethyl)amino)methyl)benzamido)propoxy)phenyl)-2-hydroxy-2-phenylacetate], the IC50 is below 0.3 nM at Human β2 adrenoceptor and 0.3 to 3 nM on Human M3 receptor.
The like results for `O=C(NCCCOc1cccc([C@](O)(C(=O)OCC2CCN(Cc3ccccc3)CC2)c2ccccc2)c1)c1ccc(CNC[C@H](O)c2ccc(O)c3[nH]c(=O)ccc23)c(OC(F)(F)F)c1` [Compound 32E, (S)-(1-benzylpiperidin-4-yl)methyl 2-hydroxy-2-(3-(3-(4-((((R)-2-hydroxy-2-(8-hydroxy-2-oxo-1,2-dihydroquinolin-5-yl)ethyl)amino)methyl)-3-(trifluoromethoxy)benzamido)propoxy)phenyl)-2-phenylacetate] were, in that order, 0.3 to 3 nM and 0.3 to 3 nM.
On to `COc1c(CNC[C@H](O)c2ccc(O)c3[nH]c(=O)ccc23)ccc(C(=O)NCCCOc2cccc([C@](O)(C(=O)OCC3CCN(Cc4ccccc4)CC3)c3ccccc3)c2)c1F` [Compound 32F, (S)-(1-benzylpiperidin-4-yl)methyl 2-(3-(3-(2-fluoro-4-((((R)-2-hydroxy-2-(8-hydroxy-2-oxo-1,2-dihydroquinolin-5-yl)ethyl)amino)methyl)-3-methoxybenzamido)propoxy)phenyl)-2-hydroxy-2-phenylacetate], for which the IC50 was below 0.3 nM on Human β2 adrenoceptor and 0.3 to 3 nM at Human M3 receptor.
Taken in the same sequence, the figures for `CC(C)Oc1cc(C(=O)NCCCOc2cccc([C@](O)(C(=O)OCC3CCN(Cc4ccccc4)CC3)c3ccccc3)c2)ccc1CNC[C@H](O)c1ccc(O)c2[nH]c(=O)ccc12` [Compound 32G, (S)-(1-benzylpiperidin-4-yl)methyl 2-hydroxy-2-(3-(3-(4-((((R)-2-hydroxy-2-(8-hydroxy-2-oxo-1,2-dihydroquinolin-5-yl)ethyl)amino)methyl)-3-isopropoxybenzamido)propoxy)phenyl)-2-phenylacetate] were 0.3 to 3 nM and 0.3 to 3 nM.
Turning to `O=C(NCCCOc1cccc([C@](O)(C(=O)OCC2CCN(Cc3ccccc3)CC2)c2ccccc2)c1)c1ccc(CNC[C@H](O)c2ccc(O)c3[nH]c(=O)ccc23)cc1Cl` [Compound 32H, (S)-(1-benzylpiperidin-4-yl)methyl 2-(3-(3-(2-chloro-4-((((R)-2-hydroxy-2-(8-hydroxy-2-oxo-1,2-dihydroquinolin-5-yl)ethyl)amino)methyl)benzamido)propoxy)phenyl)-2-hydroxy-2-phenylacetate], the results for the IC50 at Human β2 adrenoceptor and at Human M3 receptor were below 0.3 nM and 0.3 to 3 nM, respectively.
Take `COc1cc(C(=O)NCCCOc2cccc([C@](O)(C(=O)OCC3CCN(Cc4ccccc4)CC3)c3ccccc3)c2)c(F)cc1CNC[C@H](O)c1ccc(O)c2[nH]c(=O)ccc12` [Compound 32I, (S)-(1-benzylpiperidin-4-yl)methyl 2-(3-(3-(2-fluoro-4-((((R)-2-hydroxy-2-(8-hydroxy-2-oxo-1,2-dihydroquinolin-5-yl)ethyl)amino)methyl)-5-methoxybenzamido)propoxy)phenyl)-2-hydroxy-2-phenylacetate]: the IC50 at Human β2 adrenoceptor and at Human M3 receptor was below 0.3 nM each time.
Regarding `COc1cc(C(=O)NCCCOc2cccc([C@](O)(C(=O)OCC3CCN(Cc4ccccc4)CC3)c3ccccc3)c2)c(Cl)cc1CNC[C@H](O)c1ccc(O)c2[nH]c(=O)ccc12` [Compound 32J, (S)-(1-benzylpiperidin-4-yl)methyl 2-(3-(3-(2-chloro-4-((((R)-2-hydroxy-2-(8-hydroxy-2-oxo-1,2-dihydroquinolin-5-yl)ethyl)amino)methyl)-5-methoxybenzamido)propoxy)phenyl)-2-hydroxy-2-phenylacetate], the IC50 was below 0.3 nM on Human β2 adrenoceptor and 0.3 to 3 nM on Human M3 receptor.
Taken in the same sequence, the figures for `O=C(NCCCOc1cccc([C@](O)(C(=O)OCC2CCN(Cc3ccccc3)CC2)c2ccccc2)c1)c1ccc(CNC[C@H](O)c2ccc(O)c3[nH]c(=O)ccc23)cn1` [Compound 32K, (S)-(1-benzylpiperidin-4-yl)methyl 2-hydroxy-2-(3-(3-(5-((((R)-2-hydroxy-2-(8-hydroxy-2-oxo-1,2-dihydroquinolin-5-yl)ethyl)amino)methyl)picolinamido)propoxy)phenyl)-2-phenylacetate] were below 0.3 nM and 0.3 to 3 nM.
`O=C(NCCCOc1cccc([C@](O)(C(=O)OCC2CCN(Cc3ccccc3)CC2)c2ccccc2)c1)c1ccc(CNC[C@H](O)c2ccc(O)c3[nH]c(=O)ccc23)c(F)c1F` [Compound 32L, (S)-(1-benzylpiperidin-4-yl)methyl 2-(3-(3-(2,3-difluoro-4-((((R)-2-hydroxy-2-(8-hydroxy-2-oxo-1,2-dihydroquinolin-5-yl)ethyl)amino)methyl)benzamido)propoxy)phenyl)-2-hydroxy-2-phenylacetate]: the IC50 on Human β2 adrenoceptor was above 3 nM; at Human M3 receptor, 0.3 to 3 nM.
As for `O=C(NCCCOc1cccc([C@](O)(C(=O)OCC2CCN(Cc3ccccc3)CC2)c2ccccc2)c1)c1ccc(CNC[C@H](O)c2ccc(O)c3[nH]c(=O)ccc23)c(C(F)(F)F)c1` [Compound 32M, (S)-(1-benzylpiperidin-4-yl)methyl (S)-2-hydroxy-2-(3-(3-(4-((((R)-2-hydroxy-2-(8-hydroxy-2-oxo-1,2-dihydroquinolin-5-yl)ethyl)amino)methyl)-3-(trifluoromethyl)benzamido)propoxy)phenyl)-2-phenylacetate], the results for the IC50 at Human β2 adrenoceptor and on Human M3 receptor were above 3 nM and 0.3 to 3 nM, respectively.
The like results for `O=C(c1ccc(COc2cccc([C@](O)(C(=O)OCC3CCN(Cc4ccccc4)CC3)c3ccccc3)c2)cc1)N1CCC(CNC[C@H](O)c2ccc(O)c3[nH]c(=O)ccc23)CC1` [Compound 33, (S)-(1-benzylpiperidin-4-yl)methyl 2-hydroxy-2-(3-((4-(4-((((R)-2-hydroxy-2-(8-hydroxy-2-oxo-1,2-dihydroquinolin-5-yl)ethyl)amino)methyl)-piperidine-1-carbonyl)benzyl)oxy)phenyl)-2-phenylacetate] were, in that order, below 0.3 nM and below 0.3 nM.
The like results for `O=C1C=Cc2c([C@@H](O)CNCCC3CCN(C(=O)c4ccc(COc5cccc([C@](O)(C(=O)OCC6CCN(Cc7ccccc7)CC6)c6ccccc6)c5)cc4)CC3)ccc(O)c2C1` [Compound 33A, (1-benzylpiperidin-4-yl)methyl (S)-2-hydroxy-2-(3-((4-(4-(2-(((R)-2-hydroxy-2-(4-hydroxy-6-oxo-5,6-dihydronaphthalen-1-yl)ethyl)amino)ethyl)piperidine-1-carbonyl)benzyl)oxy)phenyl)-2-phenylacetate] were, in that order, below 0.3 nM and 0.3 to 3 nM.
The like results for `O=C(NCCOc1cccc([C@@](O)(C(=O)OCC2CCN(Cc3ccccc3)CC2)c2ccccc2)c1)c1ccc(CCNC[C@H](O)c2ccc(O)c3[nH]c(=O)ccc23)cc1` [Compound 34, (R)-(1-benzylpiperidin-4-yl)methyl 2-hydroxy-2-(3-(2-(4-(2-(((R)-2-hydroxy-2-(8-hydroxy-2-oxo-1,2-dihydroquinolin-5-yl)ethyl)amino)ethyl)benzamido)ethoxy)phenyl)-2-phenylacetate] were, in that order, 0.3 to 3 nM and above 3 nM.
On to `O=C(c1cccc(COc2cccc([C@](O)(C(=O)OCC3CCN(Cc4ccccc4)CC3)c3ccccc3)c2)c1)N1CCC(CNC[C@H](O)c2ccc(O)c3[nH]c(=O)ccc23)CC1` [Compound 35, (S)-(1-benzylpiperidin-4-yl)methyl 2-hydroxy-2-(3-((3-(4-((((R)-2-hydroxy-2-(8-hydroxy-2-oxo-1,2-dihydroquinolin-5-yl)ethyl)amino)methyl)-piperidine-1-carbonyl)benzyl)oxy)phenyl)-2-phenylacetate], for which the IC50 on Human β2 adrenoceptor and at Human M3 receptor was below 0.3 nM in each case.
Turning to `O=C(COc1cccc([C@](O)(C(=O)OCC2CCN(Cc3ccccc3)CC2)c2ccccc2)c1)N1CCC(CNC[C@H](O)c2ccc(O)c3[nH]c(=O)ccc23)CC1` [Compound 36, (S)-(1-benzylpiperidin-4-yl)methyl 2-hydroxy-2-(3-(2-(4-((((R)-2-hydroxy-2-(8-hydroxy-2-oxo-1,2-dihydroquinolin-5-yl)ethyl)amino)methyl)piperidin-1-yl)-2-oxoethoxy)phenyl)-2-phenylacetate], the IC50 at Human β2 adrenoceptor and on Human M3 receptor was below 0.3 nM each time.
On to `O=C(COc1cccc([C@](O)(C(=O)OCC2CCN(Cc3ccccc3)CC2)c2ccccc2)c1)N1CCC(CCNC[C@H](O)c2ccc(O)c3[nH]c(=O)ccc23)CC1` [Compound 36A, (1-benzylpiperidin-4-yl)methyl (S)-2-hydroxy-2-(3-(2-(4-(2-(((R)-2-hydroxy-2-(8-hydroxy-2-oxo-1,2-dihydroquinolin-5-yl)ethyl)amino)ethyl)piperidin-1-yl)-2-oxoethoxy)phenyl)-2-phenylacetate], for which the IC50 on Human β2 adrenoceptor and at Human M3 receptor was 0.3 to 3 nM in each case.
As to `O=C(NCCCOc1cccc([C@](O)(C(=O)OCC2CCN(Cc3ccccc3)CC2)c2ccccc2)c1)c1ccc(CCNC[C@H](O)c2ccc(O)c3[nH]c(=O)ccc23)cc1` [Compound 37, (S)-(1-benzylpiperidin-4-yl)methyl 2-hydroxy-2-(3-(3-(4-(2-(((R)-2-hydroxy-2-(8-hydroxy-2-oxo-1,2-dihydroquinolin-5-yl)ethyl)amino)ethyl)benzamido)propoxy)phenyl)-2-phenylacetate], the IC50 on Human β2 adrenoceptor and on Human M3 receptor was below 0.3 nM throughout.

Values taken from patent US9579314B2 (priority 2015, dated 2017).
